2 compounds from US20100324059A1, “PHARMACEUTICAL COMPOSITIONS USEFUL FOR TREATING HCV” (Gilead Sciences, Inc., priority 2009, published 2010) can be followed below.

This assay deals with HCV genotype 1b replicon cells (Huh-luc). The assay can be described thus: Antiviral combination study of Compound 1 and Compound 2 in the HCV 1b replicon system (luciferase readout, MacSynergy II analysis). Type of assay: cell-based. As to the method:
HCV genotype 1b replicon cells (Huh-luc) were obtained from Reblikon (Mainz, Germany). The replicon in these cells is designated I389luc-ubi-neo/NS3-3′/ET and encodes a selectable resistance marker (neomycin phosphotransferase) as well as the firefly luciferase reporter gene. Huh-luc cells were maintained in Dulbecco's Modified Eagle's Medium (DMEM; GIBCO, Carlsbad, Calif.) supplemented with 10% fetal bovine serum (FBS; Hyclone, Logan, Utah) and 0.5 mg/mL of G-418 (GIBCO). Cells were passaged twice a week and maintained at subconfluent levels.
Replicon cells were seeded in 96-well plates at a density of 5×10^3 cells per well in 100 μL of DMEM culture medium, excluding G-418. Compounds 1 and 2 were serially diluted 1:3 in 100% DMSO (Sigma). These serial dilutions were added to the cells at a 1:200 dilution to achieve a final concentration of 0.5% DMSO in a total volume of 200 μL. Plates were incubated at 37° C. for 3 days, after which culture media were removed and cells were lysed and assayed for luciferase activity using a commercial luciferase assay (Promega, Madison, Wis.). HCV replication levels in drug-treated samples were expressed as a percentage of those in untreated controls (defined as 100%), and data were fit to the logistic dose response equation y=a/(1+(x/b)c) using XLFit4 software (IDBS, Emeryville, Calif.). EC50 values were calculated from the resulting equations as described previously (Delaney, W. E., et al., Antimicrobial Agents Chemotherapy, 45(6):1705-1713 (2001)).
Replicon cells were seeded in 96-well plates at a density of 5×10^3 cells per well in 100 μL of culture medium. Compounds 1 and 2 were serially diluted in 100% DMSO as described above and added in a matrix format to 96-well plates, achieving a defined set of different drug concentrations and ratios in a final volume of 200 μL and a final DMSO concentration of 0.5%. For each individual drug, the EC50 value was selected as the midpoint for the concentration range tested. Cells were incubated for three days and analyzed for luciferase expression as indicated above. For the combination study, two independent experiments were performed in triplicate.
The calculated volumes of surface deviations are expressed in nM^2%. Per Prichard and Shipman, combination effects are defined as: • Highly synergistic if volumes >100 nM^2. • Moderately synergistic if volumes are >50 and ≦100 nM^2. • Additive if volumes are >−50 nM^2 and ≦50 nM^2. • Moderately antagonistic if volumes are >−100 nM^2 and ≦−50 nM^2. • Antagonistic if volumes are ≦−100 nM^2.
For orientation: Replicon systems follow genome replication, usually without infectious particles.

The mark [1] stands for this setting: drug used in combination with Compound 1, 3 days, mean ± standard deviation of two or three independent experiments in triplicate.

With `Fc1ccccc1-c1nc2ccn(Cc3ccc(-c4ccc(C(F)(F)F)cc4C(F)(F)F)nn3)cc-2n1` [Compound 1, 5-({6-[2,4-bis(trifluoromethyl)phenyl]pyridazin-3-yl}methyl)-2-(2-fluorophenyl)-5H-imidazo[4,5-c]pyridine], the interaction entry (Compound 1 with Compound 2) is on record as “moderate synergistic interaction”.
Regarding `CCC[C@H](NC(=O)[C@@H]1[C@H]2CCC[C@H]2CN1C(=O)[C@@H](NC(=O)[C@@H](NC(=O)c1cnccn1)C1CCCCC1)C(C)(C)C)C(=O)C(=O)NC1CC1` [Compound 2, (1S,3aR,6aS)—N-[1(S)-[2-(Cyclopropylamino)oxalyl]butyl]-2-[N-(pyrazin-2-ylcarbonyl)-L-cyclohexylglycyl-3-methyl-L-valyl]perhydrocyclopenta[c]pyrrole-1-carboxamide], under setting [1], the “Antagonism Volume” value amounted to 0 ± 0 nM^2 and the “Synergy Volume” value is 79.5 ± 10.5 nM^2. Also, where the note is “drug used in combination with Compound 1, classification per Prichard and Shipman”, the interaction entry was “Moderate synergy”.
